Laboratory results reported in PMC12040169 (PLOS Biology, 2025).

Assay: in vitro
Details: human, hela cells, % viability

| SMILES | viability at 28.5 h, 10 µM | viability at 28.5 h, 10 µM (bulk resorufin, single well) |
| --- | --- | --- |
| CC(C)c1ccc(S(=O)(=O)NCCC2CCN(Cc3ccccc3)CC2)cc1 [CBK043456] | 94.5% |  |
| CCc1noc(C)c1C(=O)N1CC(C(=O)N2CCN(c3ccccc3)CC2)C1 [CBK285667] | 107% |  |
| C=CCn1c(Cc2csc(NC(=O)c3ccc([N+](=O)[O-])cc3)n2)n[nH]c1=S [CBK295290] | 96.2% |  |
| CCC(NC(=O)C(C)Cn1cccn1)c1ccc(F)cc1 (stereo not drawn) [CBK283210] | 88.1% |  |
| CCOC(=O)C1CCN(C(=O)Cn2cnc3ccc(Br)cc3c2=O)CC1 [CBK306070] | 106% |  |
| Cc1ccc(C(=O)NNC(=O)c2ccc([N+](=O)[O-])cc2)cc1 [CBK261793] | 89.5% |  |
| CC(C)(C)c1csc(NC(=O)C2CC(=O)N(Cc3cccs3)C2)n1 (stereo not drawn) [CBK175547] | 109% |  |
| CC(=O)Nc1ccc(CNC(=O)c2ccc(C(F)(F)F)cn2)cc1 [CBK252121] | 92% |  |
| O=C(O)c1cc(S(=O)(=O)NCc2ccco2)ccc1Cl [CBK058905] | 85.4% |  |
| Cc1[nH]ncc1C(=O)N1CCn2cc(C(F)(F)F)nc2C1 [CBK282307] | 87.7% |  |
| O=c1c2cnn(-c3ccccc3)c2nc(Cc2ccccc2)n1-c1cccc2ccccc12 [CBK262316] | 82.1% |  |
| Cc1ccc2c(c1)CCN(S(C)(=O)=O)C21CCN(CCCOc2ccccc2)CC1 [CBK081066] | 96.8% |  |
| Cc1ccc(C(=O)N[C@H]2CO[C@H]3[C@@H]2OC[C@@H]3n2cc(-c3ccccc3)nn2)cc1 [CBK289504] | 81.4% |  |
| Cc1cc(C)nc(SCC(=O)N2c3ccccc3C(C)(c3ccc(Cl)cc3)CC2(C)C)n1 (stereo not drawn) [CBK073872] | 110% |  |
| CC(C)N1C(=O)C2(CC(=O)N(CCCN3C(=O)c4ccccc4C3=O)C2=O)c2cc(F)ccc21 (stereo not drawn) [CBK075969] | 99% |  |
| O=C(Nc1nnc(C(F)(F)F)s1)c1ccc(F)c(Cl)c1 [CBK076831] | 92.2% |  |
| O=C(O)c1sc2cc(C(F)(F)F)cnc2c1-c1cccs1 [CBK089890] | 114% |  |
| COc1ccc2[nH]nc(CN3CCCC(c4cc(O)nc(C)n4)C3)c2c1 (stereo not drawn) [CBK306703] | 87.6% |  |
| Cc1nn2cc(-c3n[nH]cc3[N+](=O)[O-])cnc2c1C(N)=O [CBK268957] | 87.4% |  |
| CS(=O)(=O)Nc1cccc(C2=NN(S(=O)(=O)c3ccc(Cl)cc3)C(c3ccccc3F)C2)c1 (stereo not drawn) [CBK268762] | 114% |  |
| S=C1NCCN1c1nnc(-c2cccs2)[nH]1 [CBK007096] | 97.3% |  |

| SMILES | viability at 28.5 h, 10 µM | viability at 28.5 h, 10 µM (bulk resorufin, single well) |
| --- | --- | --- |
| COc1cc2c(cc1OC)CN(CCO)CC2 [CBK138322] | 108% |  |
| O=C(O)c1cc(-c2ccco2)nc2ccccc12 [CBK027882] | 98.3% |  |
| Cc1ccc(S(=O)(=O)NC2CCC(C(=O)O)CC2)cc1 (stereo not drawn) [CBK286929] | 96.4% |  |
| Nc1ncc(-c2ccsc2)nc1NCc1ccncc1 [CBK063614] | 107% |  |
| COc1ccccc1CC(=O)N[C@@H]1CCN(Cc2cccnc2)C[C@H]1O [CBK307200] | 100% |  |
| CC(=O)NC1(c2ccc(F)cc2)CCN(C(=O)C2CCC2)CC1 [CBK283492] | 109% |  |
| CN(C)C1c2cccc3cccc(c23)C1NS(C)(=O)=O (stereo not drawn) [CBK265851] | 110% |  |
| CC(C)[C@H]1CN(Cc2ccco2)CCN1C(=O)NCc1ccccc1 [CBK284274] | 99.6% |  |
| CCc1cc2cc3c(cc2nc1SCC(=O)Nc1cccc(C(C)=O)c1)OCO3 [CBK108551] | 92.6% |  |
| COc1nnc(-c2ccc(C)cc2)c2ccccc12 [CBK263466] | 92% |  |
| Cc1csc(NC(=O)CSc2nnc3[nH]c(=O)cc(C)n23)n1 [CBK294413] | 81.7% |  |
| Cc1noc(C)c1NC(=O)c1ccnc2ccccc12 [CBK200302] | 96.3% |  |
| Cc1c(NC(=O)CCCC(=O)O)c(=O)n(-c2ccccc2)n1C [CBK286532] | 93.1% |  |
| O=C(COC(=O)CN1C(=O)C(=O)c2ccccc21)Nc1cccc2ccccc12 [CBK263915] | 90.5% |  |
| CS(=O)(=O)Nc1cc(-c2noc([C@@H]3CCCN3Cc3ccncc3)n2)ccn1 [CBK288886] | 83.5% |  |
| O=C(CN1CCC(NC(=O)c2ccccc2)CC1)Nc1ccccc1 [CBK074716] | 96.7% |  |
| O=C(c1cnn(-c2ccc(Cl)cc2Cl)c1)N1CCOCC1c1ncon1 (stereo not drawn) [CBK304231] | 84.5% |  |
| CCN(CC)c1c(C)nc2ccc(C(=O)N3CCN(C)CC3)cn12 [CBK145955] | 91.5% |  |
| NC(=O)C1=CN([C@@H]2O[C@H](CO)[C@H](O)C2O)C2N=CN=C(N)C12 (stereo partly drawn) [CBK201209] |  | 0.996% |
| O=C(CSc1nc2ccccc2[nH]1)Nc1ccc(OC(F)(F)F)cc1 [CBK269711] | 104% |  |
| Oc1cccc(-c2cn3ccnc3c(NC3CC3)n2)c1 [CBK038076] | 101% |  |
